In patent US20220265845A1, “AMINOTHIOLESTER COMPOUNDS AND USES THEREOF” (ADVANCED BIODESIGN, priority 2019, published 2022):

What follows are compounds tested on Raji cells (assay: Cell cytotoxicity by Rituximab-compound 9 (Alamar Blue)). Settings: treatment of 50 μg/ml.
Experimental: 50 000 viable Raji cells were plated in triplicate. […] The cells were incubated for 48 h at which time 20 μl of Alamar Blue (Thermo Fisher Scientific) was added to each well. The plates were incubated for an additional four hours and the fluorescence intensity read on a plate reader using excitation wavelength of 540 nm and an emission wavelength of 620 nm.
“Rituximab: Antibody rituximab (Roche), target CD20 [reference compound]” was tested, and the “Mean viability of Raji cells in percentage comparing to the non-treated cells” value was 85.50%±2.268%.

These compounds were tested on HL-60 (assay: Cell viability assay (Resazurin), cytotoxicity in HL60 cells). Settings: Homo sapiens, HL-60, read-out: IC50 at 48 h, 48 hours of incubation.
Type: cell-based
Experimental: Cell lines. Leukemic cell line, HL-60 (derived from a person with AML-M2), was used for determination of drug efficacy. Cells were obtained from the European Collection of Cell Cultures (ECACC). All cells were cultivated in appropriate media according to supplier recommendations.
Cell Viability assay, 96-well format. Cells were seeded into 96-well cell culture plates at concentrations required to ensure approximately 80% confluence in control (untreated cells) at the end of experiment (0.5×10^4-5×10^4 cell/well).
The sensitivity towards compounds according to the invention was determined using different concentrations of each compound ranging from 0.5 to 100 μM (0.5, 1, 2, 5, 10, 15, 20, 25, 30, 40, 50, 100 μM). Following 48 hours of incubation at 37° C. in a humidified atmosphere containing 5% CO2, the growth-inhibitory effect of compounds was analyzed using Resazurin, according to manufactures instructions.
To ensure good data quality and to minimize impact of pipetting errors, each compounds concentration was assessed based on mean fluorescence intensity from 8 separate wells. Compounds response were quantified by the half maximal inhibitory concentration (IC50) for each particular cell line, and determined by non-linear regression analysis of log-dose/response curves.
Statistical Analysis. Values were expressed as mean±SD or frequencies and proportions. Cell viability curves were determined using four parameter regression line. Differences between groups were determined by unpaired t test, Chi-square, Fisher's exact test or ANOVA, where appropriate. P<0.05 was considered statistically significant. Analysis was performed using GraphPad prism version 5.0 (GraphPad software, San Diego Calif. USA).
`CCOCCN(C)C(C)(C)C#CC(=O)SC` [Example 1, S-methyl 4-[2-ethoxyethyl(methyl)amino]-4-methyl-pent-2-ynethioate] was tested, and the IC50 was 4.98 µM. Work on `C=CCOCCN(C)C(C)(C)C#CC(=O)SC` [Example 2, S-methyl 4-[2-allyloxyethyl(methyl)amino]-4-methyl-pent-2-ynethioate] yielded an IC50 of 6.5 µM. Work on `CSC(=O)C#CC(C)(C)N(C)CCOCc1cccc(C)c1` [Example 4, S-methyl 4-methyl-4-[methyl-[2-(m-tolylmethoxy)ethyl]amino]pent-2-ynethioate] yielded an IC50 of 5.62 µM. Compound `COc1ccc(COCCN(C)C(C)(C)C#CC(=O)SC)cc1` [Example 6, S-methyl 4-[2-[(4-methoxyphenyl)methoxy]ethyl-methyl-amino]-4-methyl-pent-2-ynethioate] has an IC50 of 6.48 µM. With `COc1ccc(COCCN(C)C(C)(C)C#CC(=O)SC)cc1OC` [Example 7, S-methyl 4-[2-[(3,4-dimethoxyphenyl)methoxy]ethyl-methyl-amino]-4-methyl-pent-2-ynethioate] the IC50 was 6.08 µM. For `CSC(=O)C#CC(C)(C)N(C)CCOCc1cccc(Cl)c1` [Example 8, S-methyl 4-[2-[(3-chlorophenyl)methoxy]ethyl-methyl-amino]-4-methyl-pent-2-ynethioate], the IC50 was 7.07 µM. `CSC(=O)C#CC(C)(C)N(C)CCOCc1cccc(F)c1` [Example 9, S-methyl 4-[2-[(3-fluorophenyl)methoxy]ethyl-methyl-amino]-4-methyl-pent-2-ynethioate] gave an IC50 of 6.65 µM. Work on `CSC(=O)C#CC(C)(C)N(C)CCOCc1ccccn1` [Example 10, S-methyl 4-methyl-4-[methyl-[2-(2-pyridylmethoxy)ethyl]amino]pent-2-ynethioate] yielded an IC50 of 5.62 µM. With `CSC(=O)C#CC(C)(C)N(C)CCOCc1cccnc1` [Example 11, S-methyl 4-methyl-4-[methyl-[2-(3-pyridylmethoxy)ethyl]amino]pent-2-ynethioate] the IC50 was 6.56 µM. `CSC(=O)C#CC(C)(C)N(C)CCOCc1ccncc1` [Example 12, S-methyl 4-methyl-4-[methyl-[2-(4-pyridylmethoxy)ethyl]amino]pent-2-ynethioate] gave an IC50 of 5.68 µM. `COC(=O)C#CC(C)(C)N(C)C` [Example 13, methyl 4-(dimethylamino)-4-methyl-pent-2-ynoate] showed an IC50 of 42.7 µM. `CCOC(=O)C#CC(C)(C)N(C)C` [Example 14, ethyl 4-(dimethylamino)-4-methyl-pent-2-ynoate] was tested, and the IC50 was 40 µM. `CN(C)C(C)(C)C#CC(=O)SCC(=O)OC(C)(C)C` [Example 15, tert-butyl 2-((4-(dimethylamino)-4-methylpent-2-ynoyl)thio)acetate] showed an IC50 of 25 µM. `CN(C)C(C)(C)C#CC(=O)SCC(=O)O` [Example 16, 2-((4-(dimethylamino)-4-methylpent-2-ynoyl)thio)acetic acid] was tested, and the IC50 was 22.5 µM. For `CSC(=O)C#CC(C)(C)N(C)CCCCOCc1ccccc1` [Example 17, S-methyl 4-((4-(benzyloxy)butyl)(methyl)amino)-4-methylpent-2-ynethioate], the IC50 was 11.3 µM. In the case of `CSC(=O)C#CC(C)(C)N(C)CCO` [Example 18, S-methyl 4-((2-hydroxyethyl)(methyl)amino)-4-methylpent-2-ynethioate], the IC50 is reported as 6.75 µM. Work on `CSC(=O)C#CC(C)(C)N(C)CCOCc1ccc2ccccc2c1` [Example 19, S-methyl 4-methyl-4-[methyl-[2-(2-naphthylmethoxy)ethyl]amino]pent-2-ynethioate] yielded an IC50 of 11.3 µM. `CSC(=O)C#CC(C)(C)N(C)CCOCC1=C(C)CCCC1(C)C` [Example 20, S-methyl 4-methyl-4-[methyl-[2-[(2,6,6-trimethylcyclohexen-1-yl)methoxy]ethyl]amino]pent-2-ynethioate] was tested, and the IC50 was 13.6 µM. For `CSC(=O)C#CC(C)(C)N(C)CCOC(C)=O` [Example 21, 2-[(1,1-dimethyl-4-methylsulfanyl-4-oxo-but-2-ynyl)-methylamino]ethyl acetate], the IC50 was 12.7 µM. `COc1ccc(C(=O)OCCN(C)C(C)(C)C#CC(=O)SC)cc1OC` [Example 22, 2-[(1,1-dimethyl-4-methylsulfanyl-4-oxo-but-2-ynyl)-methylamino]ethyl-3,4-dimethoxybenzoate] was tested, and the IC50 was 15.3 µM. In the case of `CSC(=O)C#CC(C)(C)N(C)CCOC(=O)N(C)CCN(C)C` [Example 23, S-methyl 2,5,10,11,11-pentamethyl-6-oxo-7-oxa-2,5,10-triazatetradec-12-yne-14-thioate], the IC50 is reported as 10.6 µM. `COC[C@@H]1CCCN1C(C)(C)C#CC(=O)SC` [Example 24, (S)—S-methyl 4-(2-(methoxymethyl)pyrrolidin-1-yl)-4-methylpent-2-ynethioate] gave an IC50 of 20.5 µM. For `CO[C@@H]1CCN(C(C)(C)C#CC(=O)SC)C1` [Example 25, S-methyl 4-[(3R)-3-methoxypyrrolidin-1-yl]-4-methyl-pent-2-ynethioate], the IC50 was 16.5 µM. In the case of `CSC(=O)C#CC(C)(C)N(C)[C@@H]1CCC[C@H]1OCc1ccccc1` [Example 26, S-methyl 4-(((1R,2R)-2-(benzyloxy)cyclopentyl)(methyl)amino)-4-methylpent-2-ynethioate], the IC50 is reported as 17.5 µM. With `CSC(=O)C#CC(C)(C)N1CCC[C@H]1COCc1ccccc1` [Example 27, (S)—S-methyl 4-(2-((benzyloxy)methyl)pyrrolidin-1-yl)-4-methylpent-2-ynethioate] the IC50 was 10.4 µM. `CSC(=O)C#CC(C)(C)N1CC[C@@H](OCc2ccccc2)C1` [Example 28, (R)—S-methyl 4-(3-(benzyloxy)pyrrolidin-1-yl)-4-methylpent-2-ynethioate] showed an IC50 of 11.8 µM.
